Patent publication US20020045668A1, “Compositions for sustained release of analgesic agents, and methods of making and using the same” (priority 2000, published 2002)

settings: cited from earlier work

| Compound | Solubility in Organic Solvents |
| --- | --- |
| CC(C)CCC[C@@H](C)[C@H]1CC[C@H]2[C@@H]3CC=C4C[C@@H](O)CC[C@]4(C)[C@H]3CC[C@]12C [Cholesterol] | 1 in 4.5 chloroform |
| CCCCC(CC)COC(=O)CC(C(=O)OCC(CC)CCCC)S(=O)(=O)O (stereo not drawn) [Docusate] | 1 in 1 |
| OC[C@@H](O)[C@@H](O)[C@H](O)[C@H](O)CO [Mannitol] | Practically insoluble |
| O=C1NS(=O)(=O)c2ccccc21 [Saccharin] | Slightly soluble |
| C/C=C/C=C/C(=O)O [Sorbic acid] | 1 in 15 chloroform |

settings: data not shown

| Compound | T80% (time required for 80% of lidocaine to be released) |
| --- | --- |
| CCN(CC)CC(=O)Nc1c(C)cccc1C [pure lidocaine, lidocaine] | less than 30 minutes |
